Measurements published in the NIST ThermoML archive (doi:10.1016/j.fluid.2018.04.025).

Experiments:
[1] = 101.3 kPa, Liquid; for viscosity: Falling or rolling sphere viscometry; for speed of sound: Frequency=3 MHz, Sing-around technique in a fixed-path interferometer; for mass density: Vibrating tube method
[2] = xn = mol fraction of the nth substance listed; settings: 101 kPa, Liquid, x2 = 0; for viscosity: Falling or rolling sphere viscometry; for speed of sound: Frequency=3 MHz, Sing-around technique in a fixed-path interferometer; for mass density: Vibrating tube method

CCCC[n+]1ccn(C)c1.O=S(=O)([N-]S(=O)(=O)C(F)(F)F)C(F)(F)F
[1]
Settings | mass density [kg/m3] | speed of sound [m/s] | viscosity [mPa·s]
298.15 K | 1436.02 | 1227.3 | 51.15
303.15 K | 1431.22 | 1216.3 | 41.88
308.15 K | 1426.43 | 1205.5 | 34.58
313.15 K | 1421.64 | 1194.7 | 28.98
318.15 K | 1416.84 | 1184 | 24.6
323.15 K | 1411.89 | 1173.5 | 21.1

CCCCO [butan-1-ol] + CCCC[n+]1ccn(C)c1.O=S(=O)([N-]S(=O)(=O)C(F)(F)F)C(F)(F)F
[2]
Settings | mass density [kg/m3] | speed of sound [m/s] | viscosity [mPa·s]
298.15 K | 806.704 | 1242.4 | 2.57
303.15 K | 802.704 | 1225.5 | 2.26
308.15 K | 798.992 | 1208.7 | 1.99
313.15 K | 795.065 | 1192 | 1.77
318.15 K | 791.094 | 1175.4 | 1.58
323.15 K | 787.075 | 1158.8 | 1.41

CCCO [propan-1-ol] + CCCC[n+]1ccn(C)c1.O=S(=O)([N-]S(=O)(=O)C(F)(F)F)C(F)(F)F
[2]
Settings | mass density [kg/m3] | speed of sound [m/s] | viscosity [mPa·s]
298.15 K | 799.924 | 1206.6 | 1.89
303.15 K | 795.888 | 1189.5 | 1.69
308.15 K | 791.815 | 1172.5 | 1.51
313.15 K | 787.7 | 1155.6 | 1.35
318.15 K | 783.538 | 1138.8 | 1.22
323.15 K | 779.321 | 1122 | 1.09
